Laboratory results: ChEMBL document CHEMBL1201862, “PubChem BioAssay data set” (2004)
“And” between values parts separate entries of the source, which are not always exact repeats. Equal entries are not always repeated. The source made the active and inactive calls.

Columns and labels:
Cytochrome P450 1A2 = target: T1, Cytochrome P450 1A2 (Homo sapiens, UniProt P05177);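 further: PubChem cytochrome P450 panel assay, CYP1A2 panel member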
T1 sequence (P05177 whole entry): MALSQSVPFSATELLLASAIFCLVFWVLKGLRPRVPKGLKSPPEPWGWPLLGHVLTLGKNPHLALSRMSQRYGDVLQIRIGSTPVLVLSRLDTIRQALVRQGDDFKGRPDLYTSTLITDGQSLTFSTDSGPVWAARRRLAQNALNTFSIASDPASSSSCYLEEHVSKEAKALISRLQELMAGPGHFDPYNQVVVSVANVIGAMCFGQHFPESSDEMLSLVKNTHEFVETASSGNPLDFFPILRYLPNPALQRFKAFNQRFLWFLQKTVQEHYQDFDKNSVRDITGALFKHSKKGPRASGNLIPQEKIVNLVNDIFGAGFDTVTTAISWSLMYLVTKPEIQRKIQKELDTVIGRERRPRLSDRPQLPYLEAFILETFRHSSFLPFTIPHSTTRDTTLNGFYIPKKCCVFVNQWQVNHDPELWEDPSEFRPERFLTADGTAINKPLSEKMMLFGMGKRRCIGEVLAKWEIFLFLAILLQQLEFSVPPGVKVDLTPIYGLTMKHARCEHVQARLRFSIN

Cytochrome P450 2D6 [1] = target: T2, Cytochrome P450 2D6 (Homo sapiens, UniProt P10635);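 further: CYP2D6 member of a cytochrome P450 panel assay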
Cytochrome P450 2D6 [2] = target: T2, Cytochrome P450 2D6; remark: listed apart in the source
HEK293 [3] = test: SAR Analysis of small molecule inhibitors of T-cell specific antigen receptor-induced NF-kB activation in a HEK-293T cell line using a luminescence assay - Set 2. [Related pubchem assays (depositor defined):AID435003, AID435012, AID489026]; assay type: functional, cell-based; conditions: Homo sapiens
Jurkat = test: SAR Analysis of small molecule inhibitors of T-cell specific antigen receptor-induced NF-kB activation in a Jurkat cell line using a luminescence assay - Set 2. [Related pubchem assays (depositor defined):AID435003, AID435012, AID465]; assay type: functional, cell-based; conditions: Homo sapiens
HEK293 [4] = test: HEK293T cell viability loss, resazurin readout – resazurin fluorescence, cytotoxicity control for NF-kB activator project, SAR follow-up (AID 493251); assay type: functional, cell-based; conditions: Homo sapiens
[5] = HEK-293T viability loss after treatment – luminescence, T-cell screen hits, cytotoxicity control for TCR NF-kB inhibitor project, dose response (AID 489026); assay type: functional, cell-based;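 further: cells exposed to compound about 14 hours before the viability readout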
[6] = target: T3, Microphthalmia-associated transcription factor (Homo sapiens, UniProt O75030); test: reducers of TRPM1 reporter luminescence, concentration series – cell-based, SK-MEL-5, cherry-picked, set 3, MITF inhibitor project, dose response (AID 493073); assay type: functional;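 further: SK-MEL-5 melanoma cells with luciferase driven by the MITF target TRPM1 promoter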
T3 sequence (O75030 whole entry): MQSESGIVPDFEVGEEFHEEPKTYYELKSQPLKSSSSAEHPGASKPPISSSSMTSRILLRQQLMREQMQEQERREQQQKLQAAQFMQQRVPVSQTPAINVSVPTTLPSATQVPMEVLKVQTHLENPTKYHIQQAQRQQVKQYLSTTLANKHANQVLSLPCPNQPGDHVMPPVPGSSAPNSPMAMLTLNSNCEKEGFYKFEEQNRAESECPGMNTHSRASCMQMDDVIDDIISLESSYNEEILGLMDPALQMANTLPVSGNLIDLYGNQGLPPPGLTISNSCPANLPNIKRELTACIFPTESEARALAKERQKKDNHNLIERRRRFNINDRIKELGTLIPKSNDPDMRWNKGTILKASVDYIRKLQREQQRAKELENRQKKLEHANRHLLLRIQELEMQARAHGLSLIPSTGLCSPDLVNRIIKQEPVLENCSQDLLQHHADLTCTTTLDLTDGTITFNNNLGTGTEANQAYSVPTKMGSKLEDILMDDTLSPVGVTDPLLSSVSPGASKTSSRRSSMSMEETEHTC

[7] = restored growth of temperature-sensitive Burl-1 yeast – whole organism, S. cerevisiae, Burl-1 ts mutant, luminescence, counter-screen for SUMOylation pathway inhibitor project, dose response (AID 463199); assay type: functional
Cytochrome P450 2C19 = Cytochrome P450 2C19 (Homo sapiens, UniProt P33261); test: Cytochrome panel assay with activity outcomes. Panel member name: p450-cyp2c19 Compounds with AC50 equal or less than 10 uM are considered active; assay type: functional; conditions: read-out: AC50
Phosphomannomutase 2 = Phosphomannomutase 2 (Homo sapiens, UniProt O15305); test: Counter screen SAR assay for PMM2 inhibitors via a fluorescence intensity assay. [Related pubchem assays (depositor defined):AID1545, AID1574]
[8] = target: T4, Mannose-6-phosphate isomerase (Homo sapiens, UniProt P34949); test: phosphomannose isomerase inhibition – biochemical, fluorescence intensity, confirmation (AID 1535)
T4 sequence (P34949 whole entry): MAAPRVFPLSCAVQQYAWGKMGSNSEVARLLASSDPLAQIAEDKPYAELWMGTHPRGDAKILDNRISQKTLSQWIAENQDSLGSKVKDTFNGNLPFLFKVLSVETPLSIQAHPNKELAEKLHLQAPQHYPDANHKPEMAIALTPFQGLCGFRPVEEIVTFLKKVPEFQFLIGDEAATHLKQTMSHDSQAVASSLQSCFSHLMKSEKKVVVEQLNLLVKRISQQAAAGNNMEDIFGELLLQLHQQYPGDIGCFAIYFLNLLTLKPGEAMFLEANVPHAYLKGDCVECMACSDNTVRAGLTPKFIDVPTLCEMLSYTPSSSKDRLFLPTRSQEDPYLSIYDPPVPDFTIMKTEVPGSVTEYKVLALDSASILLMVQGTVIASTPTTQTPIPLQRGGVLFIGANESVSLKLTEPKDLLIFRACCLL

[9] = viability of HCT116 lacking mutant beta-catenin – cell-based, human colon tumor, dose response (AID 1045); assay type: functional;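 further: HCT116 colon tumor cells with beta catenin knocked out; cells exposed to compound for 60 hours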
[10] = viability of PTEN-deleted HCT116 cells – cell-based, HCT116 PTEN knockout, dose response (AID 1047); assay type: functional;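 further: HCT116 colon tumor cells with PTEN knocked out; cells exposed to compound for 60 hours before readout; potency for loss of cell viability measured by luminescence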
[11] = target: T5, Apoptotic protease-activating factor 1 (Homo sapiens, UniProt O14727); test: activation of Apaf-1 mediated apoptosis – fluorescent, uHTS hits, dose response (AID 588554); assay type: functional
T5 sequence (O14727 whole entry): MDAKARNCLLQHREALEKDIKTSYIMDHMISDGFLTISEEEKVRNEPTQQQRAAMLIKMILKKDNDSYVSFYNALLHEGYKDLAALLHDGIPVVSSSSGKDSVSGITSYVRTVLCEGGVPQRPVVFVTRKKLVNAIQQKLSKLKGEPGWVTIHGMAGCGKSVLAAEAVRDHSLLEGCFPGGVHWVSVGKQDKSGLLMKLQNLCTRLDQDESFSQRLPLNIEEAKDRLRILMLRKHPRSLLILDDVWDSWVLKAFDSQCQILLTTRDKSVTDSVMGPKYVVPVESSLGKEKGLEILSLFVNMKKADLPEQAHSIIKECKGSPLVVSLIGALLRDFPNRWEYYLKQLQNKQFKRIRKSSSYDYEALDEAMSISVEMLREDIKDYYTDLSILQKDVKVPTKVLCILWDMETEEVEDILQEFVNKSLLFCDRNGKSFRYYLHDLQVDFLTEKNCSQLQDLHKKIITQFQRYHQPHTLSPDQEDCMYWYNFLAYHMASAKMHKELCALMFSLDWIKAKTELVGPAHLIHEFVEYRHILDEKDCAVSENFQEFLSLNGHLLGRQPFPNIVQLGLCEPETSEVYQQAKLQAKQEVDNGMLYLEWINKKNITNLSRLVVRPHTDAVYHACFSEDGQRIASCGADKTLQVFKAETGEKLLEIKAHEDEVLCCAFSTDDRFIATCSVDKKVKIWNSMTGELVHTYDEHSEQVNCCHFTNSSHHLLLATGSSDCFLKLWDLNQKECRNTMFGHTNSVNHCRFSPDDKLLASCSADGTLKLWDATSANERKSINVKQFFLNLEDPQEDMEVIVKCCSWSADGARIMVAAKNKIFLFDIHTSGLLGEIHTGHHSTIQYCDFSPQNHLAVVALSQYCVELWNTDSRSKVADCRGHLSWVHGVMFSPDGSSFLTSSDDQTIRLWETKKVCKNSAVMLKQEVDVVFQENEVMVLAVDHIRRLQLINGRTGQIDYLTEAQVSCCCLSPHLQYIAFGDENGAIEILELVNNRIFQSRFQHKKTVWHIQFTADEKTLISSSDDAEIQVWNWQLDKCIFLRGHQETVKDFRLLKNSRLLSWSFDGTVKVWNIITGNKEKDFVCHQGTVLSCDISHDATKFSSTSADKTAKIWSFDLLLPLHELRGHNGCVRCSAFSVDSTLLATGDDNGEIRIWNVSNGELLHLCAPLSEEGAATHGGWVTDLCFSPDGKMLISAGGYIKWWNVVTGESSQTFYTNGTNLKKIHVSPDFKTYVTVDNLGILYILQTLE

Hexokinase-1 = Hexokinase-1 (Homo sapiens, UniProt P19367); test: hexokinase 1 activity inhibitors, potency – biochemical, set 2, resazurin fluorescence coupled readout, selectivity assay for HKDC1 inhibitor project, SAR follow-up (AID 588356); assay type: functional
Hexokinase HKDC1 = target: T6, Hexokinase HKDC1 (Homo sapiens, UniProt Q2TB90); test: analog inhibition of human HKDC1 activity – biochemical, set 2, SAR follow-up (AID 588355); assay type: functional
T6 sequence (Q2TB90 whole entry): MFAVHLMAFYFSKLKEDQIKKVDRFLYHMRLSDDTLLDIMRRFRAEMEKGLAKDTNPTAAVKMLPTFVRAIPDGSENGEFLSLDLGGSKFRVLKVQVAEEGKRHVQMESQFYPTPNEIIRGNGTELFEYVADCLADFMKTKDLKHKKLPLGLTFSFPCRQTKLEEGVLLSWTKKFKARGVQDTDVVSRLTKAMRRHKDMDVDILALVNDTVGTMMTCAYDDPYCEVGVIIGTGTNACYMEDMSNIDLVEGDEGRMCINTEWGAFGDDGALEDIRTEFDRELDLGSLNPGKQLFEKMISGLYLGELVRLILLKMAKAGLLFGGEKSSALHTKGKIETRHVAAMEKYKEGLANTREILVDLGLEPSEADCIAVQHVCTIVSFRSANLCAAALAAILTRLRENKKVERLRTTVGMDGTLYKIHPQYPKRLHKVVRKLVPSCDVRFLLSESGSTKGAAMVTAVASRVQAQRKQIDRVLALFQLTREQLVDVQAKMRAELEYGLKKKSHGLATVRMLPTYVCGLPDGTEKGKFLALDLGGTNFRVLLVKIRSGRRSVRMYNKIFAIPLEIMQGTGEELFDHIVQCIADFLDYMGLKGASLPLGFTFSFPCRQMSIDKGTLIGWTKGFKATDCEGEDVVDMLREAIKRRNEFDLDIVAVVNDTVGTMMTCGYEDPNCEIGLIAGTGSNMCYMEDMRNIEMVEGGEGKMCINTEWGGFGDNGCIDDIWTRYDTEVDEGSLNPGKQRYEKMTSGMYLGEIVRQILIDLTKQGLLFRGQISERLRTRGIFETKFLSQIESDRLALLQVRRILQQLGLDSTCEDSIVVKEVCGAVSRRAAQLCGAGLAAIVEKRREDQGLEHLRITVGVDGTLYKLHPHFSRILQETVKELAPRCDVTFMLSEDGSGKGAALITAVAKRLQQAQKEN

T2 sequence (P10635 whole entry): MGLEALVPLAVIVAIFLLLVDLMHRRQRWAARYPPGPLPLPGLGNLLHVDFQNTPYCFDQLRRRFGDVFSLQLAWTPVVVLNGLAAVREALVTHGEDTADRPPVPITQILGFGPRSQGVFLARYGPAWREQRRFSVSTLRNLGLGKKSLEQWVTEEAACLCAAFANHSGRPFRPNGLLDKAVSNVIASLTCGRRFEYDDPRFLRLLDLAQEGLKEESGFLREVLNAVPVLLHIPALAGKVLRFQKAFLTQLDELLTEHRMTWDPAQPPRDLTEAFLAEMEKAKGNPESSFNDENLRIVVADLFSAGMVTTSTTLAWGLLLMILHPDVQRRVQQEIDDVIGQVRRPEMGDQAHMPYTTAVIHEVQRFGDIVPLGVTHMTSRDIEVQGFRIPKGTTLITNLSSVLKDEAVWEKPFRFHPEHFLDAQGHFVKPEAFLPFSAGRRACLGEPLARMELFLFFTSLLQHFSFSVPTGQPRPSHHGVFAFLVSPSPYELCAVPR
Hexokinase-1, sequence (P19367 whole entry): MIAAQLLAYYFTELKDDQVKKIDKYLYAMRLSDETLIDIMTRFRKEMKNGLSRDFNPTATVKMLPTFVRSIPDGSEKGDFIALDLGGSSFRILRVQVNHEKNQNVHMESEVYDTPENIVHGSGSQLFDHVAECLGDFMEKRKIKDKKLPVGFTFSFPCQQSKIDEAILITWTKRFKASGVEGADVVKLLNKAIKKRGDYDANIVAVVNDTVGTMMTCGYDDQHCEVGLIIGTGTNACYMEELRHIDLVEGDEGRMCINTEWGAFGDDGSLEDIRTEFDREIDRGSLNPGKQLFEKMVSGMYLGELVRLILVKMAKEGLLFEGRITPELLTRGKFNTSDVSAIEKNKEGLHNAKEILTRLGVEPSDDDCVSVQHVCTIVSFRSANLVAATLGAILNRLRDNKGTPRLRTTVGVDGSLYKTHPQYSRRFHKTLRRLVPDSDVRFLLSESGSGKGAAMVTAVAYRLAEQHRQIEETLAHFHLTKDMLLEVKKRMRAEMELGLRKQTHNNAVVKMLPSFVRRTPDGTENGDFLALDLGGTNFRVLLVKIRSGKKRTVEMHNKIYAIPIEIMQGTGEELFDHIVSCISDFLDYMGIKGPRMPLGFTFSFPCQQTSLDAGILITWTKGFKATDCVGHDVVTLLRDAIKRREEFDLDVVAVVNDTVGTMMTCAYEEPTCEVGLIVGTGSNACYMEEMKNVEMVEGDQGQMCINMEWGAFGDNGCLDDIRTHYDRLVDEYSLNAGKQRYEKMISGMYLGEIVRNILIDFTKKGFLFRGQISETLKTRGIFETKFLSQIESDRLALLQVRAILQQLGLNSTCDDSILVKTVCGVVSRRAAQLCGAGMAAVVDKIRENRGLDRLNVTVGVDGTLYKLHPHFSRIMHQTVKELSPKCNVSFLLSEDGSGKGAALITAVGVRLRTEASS
Phosphomannomutase 2, sequence (O15305 whole entry): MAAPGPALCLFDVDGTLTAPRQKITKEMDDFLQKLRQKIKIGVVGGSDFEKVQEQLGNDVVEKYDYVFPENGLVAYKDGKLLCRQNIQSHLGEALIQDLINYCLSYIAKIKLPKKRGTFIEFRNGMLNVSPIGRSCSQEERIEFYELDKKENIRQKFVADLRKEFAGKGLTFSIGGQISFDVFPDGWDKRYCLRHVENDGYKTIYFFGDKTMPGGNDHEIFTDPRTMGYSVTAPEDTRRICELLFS
Cytochrome P450 2C19, sequence (P33261 whole entry): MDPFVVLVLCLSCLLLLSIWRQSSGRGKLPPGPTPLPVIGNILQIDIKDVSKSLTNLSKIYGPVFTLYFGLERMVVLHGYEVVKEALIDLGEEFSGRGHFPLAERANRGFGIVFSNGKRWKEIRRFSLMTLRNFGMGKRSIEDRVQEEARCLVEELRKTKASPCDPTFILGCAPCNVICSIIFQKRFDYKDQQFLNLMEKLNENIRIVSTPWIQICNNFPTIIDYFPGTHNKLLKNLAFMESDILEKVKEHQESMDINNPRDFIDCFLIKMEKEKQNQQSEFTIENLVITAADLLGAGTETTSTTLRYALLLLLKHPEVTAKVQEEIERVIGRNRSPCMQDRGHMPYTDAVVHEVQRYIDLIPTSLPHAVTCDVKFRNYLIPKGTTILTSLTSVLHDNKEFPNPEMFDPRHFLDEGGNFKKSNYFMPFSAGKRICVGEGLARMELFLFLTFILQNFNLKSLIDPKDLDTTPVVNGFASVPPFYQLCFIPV

Q: With Cc1cccc(C)c1N=C1NCCCS1 [XYLAZINE] as the compound, how does the AC50 (Cytochrome P450 1A2) read?
A: Its AC50 is “inactive”.

Q: And the AC50 (Cytochrome P450 2D6 [1])?
A: Its AC50 is 39.8 µM (inconclusive) and 10 µM (inconclusive).

Q: For Cc1ncc([N+](=O)[O-])n1CC(C)O (stereo not drawn) [SECNIDAZOLE], which AC50 (Cytochrome P450 2D6 [2]) is on record?
A: Its AC50 is “inconclusive”.

Q: With Cc1cc(C)cc(NC(=O)c2ccc([N+](=O)[O-])o2)c1 as the compound, how does the IC50 (HEK293 [3]) read?
A: Its IC50 is 21.8 µM (inactive).

Q: And the IC50 (Jurkat)?
A: The IC50 was 0.85 µM (active).

Q: And the IC50 (HEK293 [4])?
A: The IC50 was 43.4 µM (inactive).

Q: And the IC50 [5]?
A: Its IC50 is > 80 µM (inactive).

Q: And the AC50 [6]?
A: Its AC50 is 16.6 µM (active).

Q: With Cc1ccc(S(=O)(=O)N2CCOCC2)cc1NC(=O)COC(=O)CCC(=O)c1cccs1 as the compound, how does the AC50 [7] read?
A: The AC50 was 87.5 µM (active).

Q: And the AC50 (Cytochrome P450 2D6 [1])?
A: Its AC50 is 31.6 µM (inconclusive).

Q: What about the AC50 (Cytochrome P450 2C19) of the same compound?
A: Its AC50 is 39.8 µM (inconclusive).

Q: For OCc1ccccc1/N=c1\ssnc1Cl, which IC50 (Phosphomannomutase 2) is on record?
A: The IC50 was > 100 µM (inactive).

Q: What about the IC50 [8] of the same compound?
A: Its IC50 is 35.8 µM (active).

Q: Which EC50 [9] does the source give for CCOc1ccc(C(=O)/C=C/Nc2ccc(S(=O)(=O)N=C(N)N)cc2)cc1 here?
A: The EC50 was 21.8 µM (active).

Q: And the EC50 [10]?
A: The EC50 was 16.3 µM (active).

Q: What about the EC50 [11] of the same compound?
A: Its EC50 is 6.28 µM (active).

Q: With COc1cc2c(cc1OC)-c1cc(NCCN(C)C)nc(=O)n1CC2 as the compound, how does the IC50 (Hexokinase-1) read?
A: The IC50 was > 80 µM (inactive).

Q: And the IC50 (Hexokinase HKDC1)?
A: The IC50 was > 80 µM (inactive).
